Data as given in ChEMBL document CHEMBL4840343, “Fragment-based lead discovery of indazole-based compounds as AXL kinase inhibitors” (Bioorg Med Chem, 2021).
Converted amounts (≈) assume the structure as drawn. The source made the active and inactive calls. No cut-off for these calls is given here.

Legend:
[1] = Thermodynamic solubility of compound at pH 7.4; assay type: physicochemical; settings: buffer, read-out: Therm_solubility
[2] = Efflux ratio of permeability in human Caco-2 cells; assay type: ADME, cell-based
[3] = Intrinsic clearance in human liver microsomes; assay type: ADME, Microsome; settings: read-out: CLH
[4] = Tmax in mouse at 5 mg/kg, po; assay type: ADME, organism-based; settings: in vivo
[5] = Intrinsic clearance in mouse liver microsomes; assay type: ADME, Microsome; settings: read-out: CLH
[6] = Permeability across basolateral to apical side in human Caco-2 cells; assay type: ADME, cell-based; settings: read-out: permeability
[7] = Distribution coefficient, logD of compound at pH 7.4; assay type: physicochemical; settings: octanol/water
[8] = Cmax in mouse at 5 mg/kg, po; assay type: ADME, organism-based; set-up: route oral, dose 5 mg/kg; settings: in vivo
[9] = target: T1, Tyrosine-protein kinase receptor UFO (Homo sapiens, UniProt P30530); test: Displacement of K5 tracer from Axl (unknown origin) expressed in human HEK293 cells cotransfected with NanoLuc measured after 2 hrs by NanoBRET assay; assay type: cell-based
T1 sequence (P30530 whole entry): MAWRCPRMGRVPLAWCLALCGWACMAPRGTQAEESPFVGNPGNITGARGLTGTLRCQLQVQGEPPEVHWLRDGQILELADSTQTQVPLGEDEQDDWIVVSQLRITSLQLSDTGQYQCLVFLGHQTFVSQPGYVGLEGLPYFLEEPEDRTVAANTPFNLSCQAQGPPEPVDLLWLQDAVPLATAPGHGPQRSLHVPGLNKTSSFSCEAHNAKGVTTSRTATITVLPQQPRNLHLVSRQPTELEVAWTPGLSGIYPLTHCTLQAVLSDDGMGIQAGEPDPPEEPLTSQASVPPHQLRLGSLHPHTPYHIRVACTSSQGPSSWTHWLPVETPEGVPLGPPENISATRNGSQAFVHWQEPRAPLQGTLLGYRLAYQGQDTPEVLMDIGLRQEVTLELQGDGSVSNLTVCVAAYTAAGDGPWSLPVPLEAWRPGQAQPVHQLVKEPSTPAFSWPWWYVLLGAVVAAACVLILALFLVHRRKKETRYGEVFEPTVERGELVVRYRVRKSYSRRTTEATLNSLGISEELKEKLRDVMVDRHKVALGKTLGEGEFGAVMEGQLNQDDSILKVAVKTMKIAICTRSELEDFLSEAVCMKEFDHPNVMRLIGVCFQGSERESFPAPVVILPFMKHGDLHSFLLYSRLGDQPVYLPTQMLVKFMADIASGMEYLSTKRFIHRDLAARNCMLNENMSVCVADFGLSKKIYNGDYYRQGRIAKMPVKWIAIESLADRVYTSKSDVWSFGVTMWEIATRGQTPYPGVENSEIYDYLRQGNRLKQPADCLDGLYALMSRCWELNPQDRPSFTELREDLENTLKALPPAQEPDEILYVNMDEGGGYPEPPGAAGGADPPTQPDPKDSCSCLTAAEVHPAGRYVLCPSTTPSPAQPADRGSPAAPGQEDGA

[10] = target: T1, Tyrosine-protein kinase receptor UFO; test: Inhibition of Axl (unknown origin) using 5'FAM labeled KKKKEEIYFFF-NH2 peptide as substrate incubated for 1.5 hrs
[11] = AUC (0 to infinity) in mouse at 5 mg/kg, po; assay type: ADME, organism-based; set-up: route oral, time infinity, dose 5 mg/kg; settings: in vivo
[12] = Permeability across apical to basolateral side in human Caco-2 cells; assay type: ADME, cell-based; settings: read-out: permeability
[13] = Half life in mouse at 5 mg/kg, po; assay type: ADME, organism-based; settings: in vivo
[14] = target: Tyrosine-protein kinase receptor UFO (Homo sapiens) (UniProt P30530); test: Inhibition of Axl in human SK-OV-3 cells assessed as reduction in phosphorylated ERK1/2 level at 1 to 10 uM measured after 1 hr by Western blot analysis; assay type: cell-based; settings: dose 1-10 µM
[15] = target: Tyrosine-protein kinase receptor UFO (Homo sapiens) (UniProt P30530); test: Inhibition of Axl in human SK-OV-3 cells assessed as reduction in phosphorylated Axl level measured after 1 hr by Western blot analysis; assay type: cell-based; settings: dose 1-10 µM
SK-OV-3 = test: Antiproliferative activity against human SK-OV-3 cells as reduction in cell growth measured after 72 hrs by Celltiter-Glo luminescent assay; assay type: functional
[16] = target: MAP kinase-interacting serine/threonine-protein kinase 2 (Homo sapiens) (UniProt Q9HBH9); test: Inhibition of MKNK2 (unknown origin)
Sequence of MAP kinase-interacting serine/threonine-protein kinase 2 (Homo sapiens) (Q9HBH9 whole entry, looked up): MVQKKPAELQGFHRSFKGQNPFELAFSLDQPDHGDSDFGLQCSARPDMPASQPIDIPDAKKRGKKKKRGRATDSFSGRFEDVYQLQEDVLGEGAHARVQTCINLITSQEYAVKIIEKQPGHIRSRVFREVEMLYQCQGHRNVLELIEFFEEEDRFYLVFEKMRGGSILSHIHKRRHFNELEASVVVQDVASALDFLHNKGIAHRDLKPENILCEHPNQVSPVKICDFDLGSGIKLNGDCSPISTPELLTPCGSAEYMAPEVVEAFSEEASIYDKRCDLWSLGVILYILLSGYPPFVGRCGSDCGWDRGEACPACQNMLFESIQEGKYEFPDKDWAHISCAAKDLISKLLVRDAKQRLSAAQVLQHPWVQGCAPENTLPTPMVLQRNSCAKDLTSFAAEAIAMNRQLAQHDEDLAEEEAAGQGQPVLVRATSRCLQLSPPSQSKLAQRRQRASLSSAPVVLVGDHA

[17] = target: Proto-oncogene tyrosine-protein kinase receptor Ret (Homo sapiens) (UniProt P07949); test: Inhibition of RET (unknown origin)
Sequence of Proto-oncogene tyrosine-protein kinase receptor Ret (Homo sapiens) (P07949 whole entry): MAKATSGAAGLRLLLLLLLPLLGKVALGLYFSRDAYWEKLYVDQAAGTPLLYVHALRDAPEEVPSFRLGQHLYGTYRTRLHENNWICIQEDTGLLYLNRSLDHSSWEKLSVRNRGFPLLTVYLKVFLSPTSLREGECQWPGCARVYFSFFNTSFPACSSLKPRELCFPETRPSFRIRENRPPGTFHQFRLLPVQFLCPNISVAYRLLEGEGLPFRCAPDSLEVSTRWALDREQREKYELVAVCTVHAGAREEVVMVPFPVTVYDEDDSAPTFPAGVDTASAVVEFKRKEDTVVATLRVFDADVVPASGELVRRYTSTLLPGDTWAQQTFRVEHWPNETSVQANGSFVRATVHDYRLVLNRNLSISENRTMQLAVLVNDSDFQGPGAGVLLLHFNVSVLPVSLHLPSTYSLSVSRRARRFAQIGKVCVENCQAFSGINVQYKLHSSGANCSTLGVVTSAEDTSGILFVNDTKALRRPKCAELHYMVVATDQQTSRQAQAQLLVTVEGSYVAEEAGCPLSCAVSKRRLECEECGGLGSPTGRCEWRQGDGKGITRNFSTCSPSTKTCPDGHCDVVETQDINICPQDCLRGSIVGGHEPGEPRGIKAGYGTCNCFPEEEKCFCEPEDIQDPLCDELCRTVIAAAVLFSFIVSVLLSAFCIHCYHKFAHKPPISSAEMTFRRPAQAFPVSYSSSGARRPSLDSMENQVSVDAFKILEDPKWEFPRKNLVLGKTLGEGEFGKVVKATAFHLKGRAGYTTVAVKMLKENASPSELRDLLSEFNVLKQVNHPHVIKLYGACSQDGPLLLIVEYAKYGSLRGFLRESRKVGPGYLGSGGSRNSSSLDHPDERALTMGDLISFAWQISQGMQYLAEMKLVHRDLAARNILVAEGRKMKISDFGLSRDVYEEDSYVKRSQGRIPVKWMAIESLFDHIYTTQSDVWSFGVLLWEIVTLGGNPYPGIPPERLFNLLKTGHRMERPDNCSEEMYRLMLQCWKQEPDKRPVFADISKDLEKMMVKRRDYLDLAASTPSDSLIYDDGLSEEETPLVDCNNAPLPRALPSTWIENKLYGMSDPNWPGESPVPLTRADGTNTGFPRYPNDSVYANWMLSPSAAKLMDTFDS

[18] = target: Receptor-type tyrosine-protein kinase FLT3 (Homo sapiens) (UniProt P36888); test: Inhibition of FLT3 (unknown origin)
Sequence of Receptor-type tyrosine-protein kinase FLT3 (Homo sapiens) (P36888 whole entry): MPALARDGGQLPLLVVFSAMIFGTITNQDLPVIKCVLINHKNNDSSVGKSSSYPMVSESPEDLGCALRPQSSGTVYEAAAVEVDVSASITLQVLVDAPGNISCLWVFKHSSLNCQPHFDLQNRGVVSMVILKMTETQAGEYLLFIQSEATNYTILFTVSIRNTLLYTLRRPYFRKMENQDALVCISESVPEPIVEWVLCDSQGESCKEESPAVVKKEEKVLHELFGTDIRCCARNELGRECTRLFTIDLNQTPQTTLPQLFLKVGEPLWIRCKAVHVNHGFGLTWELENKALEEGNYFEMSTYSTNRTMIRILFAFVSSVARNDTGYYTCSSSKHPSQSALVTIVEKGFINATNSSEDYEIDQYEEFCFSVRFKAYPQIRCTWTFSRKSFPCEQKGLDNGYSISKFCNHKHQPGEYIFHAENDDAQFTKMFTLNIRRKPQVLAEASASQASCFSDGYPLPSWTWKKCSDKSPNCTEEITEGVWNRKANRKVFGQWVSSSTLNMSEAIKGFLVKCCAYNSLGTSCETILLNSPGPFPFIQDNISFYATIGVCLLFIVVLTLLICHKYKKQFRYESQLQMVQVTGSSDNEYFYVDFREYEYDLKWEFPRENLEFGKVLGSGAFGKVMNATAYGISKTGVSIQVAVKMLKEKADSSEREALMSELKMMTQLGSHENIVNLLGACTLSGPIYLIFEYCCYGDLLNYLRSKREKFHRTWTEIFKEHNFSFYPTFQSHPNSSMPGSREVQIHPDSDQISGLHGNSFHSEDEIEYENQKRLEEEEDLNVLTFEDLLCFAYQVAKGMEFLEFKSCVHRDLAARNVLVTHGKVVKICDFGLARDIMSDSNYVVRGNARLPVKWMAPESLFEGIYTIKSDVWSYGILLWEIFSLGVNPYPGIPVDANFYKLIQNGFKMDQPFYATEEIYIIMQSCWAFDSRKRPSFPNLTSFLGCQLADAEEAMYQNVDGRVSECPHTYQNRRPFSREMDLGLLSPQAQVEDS

FC(F)(F)n1cc(-c2n[nH]c3cc(Cl)c(N[C@@H]4CCN(C5COC5)C4)cc23)cn1
solubility thermodynamic [1]: 4.58 µg/mL (≈ 10.7 µM) | efflux ratio [2]: 0.82 | microsomal CLint [3]: 15.4 µL/min/mg | Tmax [4]: 10.2 min | microsomal CLint [5]: 43.9 µL/min/mg | Papp B→A [6]: 17.4 ×10⁻⁶ cm/s | logD [7]: 3.66 | Cmax [8]: 258 ng/mL | IC50 [9]: 26.3 µM | IC50 [10]: 466 µM | AUC(0-inf) [11]: 573 ng·h/mL | Papp A→B [12]: 21.1 ×10⁻⁶ cm/s | half-life [13]: 156 min

Brc1cnn2cccnc12
IC50 [10]: 330 µM

Cn1cc(-c2n[nH]c3ccc(N)cc23)cn1
IC50 [10]: 8.91 µM

Clc1ccnc2[nH]ccc12
IC50 [10]: 113 µM

Nc1ccc2c(Br)n[nH]c2c1
IC50 [10]: > 770 µM

COc1ccc(-n2cc(-c3n[nH]c4cc(Cl)c(N[C@@H]5CCNC5)cc34)cn2)cc1
inhibition [14]: Active | inhibition [15]: Dose-Dependent Effect | IC50 [9]: 0.374 µM | IC50 [10]: 0.3 µM | GI50 (SK-OV-3): 718 nM

Nc1cccc(-c2cccnc2)c1
IC50 [10]: 363 µM

Cc1ccc(C)n1-c1ccsc1C(=O)O
IC50 [10]: 70 µM

Cn1cc(-c2n[nH]c3ccc(N[C@H]4CCNC4)cc23)cn1
IC50 [9]: > 50 µM | IC50 [10]: 239 µM

Clc1cc2[nH]nc(-c3cnn(-c4ccccc4)c3)c2cc1N[C@@H]1CCNC1
IC50 [9]: 0.668 µM | IC50 [10]: 1.7 µM

O=C(O)c1ccc2c(Br)n[nH]c2c1
IC50 [10]: > 770 µM

COc1cc2[nH]ncc2cc1Br
IC50 [10]: 227 µM

Cn1cc(-c2n[nH]c3cc(Cl)c(N[C@@H]4CCN(C5COC5)C4)cc23)cn1
solubility thermodynamic [1]: 245 µg/mL (≈ 657 µM) | efflux ratio [2]: 2.31 | microsomal CLint [3]: 6.9 µL/min/mg | Tmax [4]: 10.2 min | microsomal CLint [5]: 15.2 µL/min/mg | Papp B→A [6]: 31.6 ×10⁻⁶ cm/s | logD [7]: 2.31 | Cmax [8]: 126 ng/mL | IC50 [9]: 24.7 µM | IC50 [10]: 320 µM | AUC(0-inf) [11]: 396 ng·h/mL | Papp A→B [12]: 13.7 ×10⁻⁶ cm/s | half-life [13]: 120 min

CSc1cc(-c2ccc(F)cc2)n[nH]1
IC50 [10]: 331 µM

Cn1cc(-c2n[nH]c3cc(-c4ccccc4)ccc23)cn1
IC50 [10]: 12.3 µM

Cn1cc(-c2nn(C)c3cc(N)ccc23)cn1
IC50 [10]: > 384 µM

N#Cc1ccc(-n2cc(-c3n[nH]c4cc(Cl)c(N[C@@H]5CCNC5)cc34)cn2)cc1
IC50 [9]: 0.88 µM | IC50 [10]: 0.7 µM | GI50 (SK-OV-3): 52.9 nM

CC(C)Nc1ccc2c(-c3cnn(C)c3)n[nH]c2c1
IC50 [10]: 46.6 µM

c1cncc(-c2csc(-c3cccnc3)n2)c1
IC50 [10]: 305 µM

COc1ccc2[nH]c(C)cc2c1
IC50 [10]: 38 µM

Brc1c[nH]c2ncccc12
IC50 [10]: 22.8 µM

N#Cc1ccccc1-n1cc(-c2n[nH]c3cc(Cl)c(N[C@@H]4CCNC4)cc23)cn1
IC50 [9]: 3.54 µM | IC50 [10]: 3.2 µM | GI50 (SK-OV-3): 2780 nM

Nc1ccc(Br)c2ccncc12
IC50 [10]: 57 µM

CN1CC[C@@H](Nc2cc3c(-c4cnn(C)c4)n[nH]c3cc2Cl)C1
IC50 [9]: 8.96 µM | IC50 [10]: 74 µM

Brc1cccc2[nH]ncc12
IC50 [10]: 178 µM

Nc1ccc2c(-c3cccnc3)n[nH]c2c1
IC50 [10]: 28.4 µM

Cn1cc(-c2n[nH]c3cc(Cl)c(N[C@@H]4CCNC4)cc23)cn1
inhibition [14]: Active | solubility thermodynamic [1]: 297 µg/mL (≈ 938 µM) | efflux ratio [2]: 22.6 | microsomal CLint [3]: < 12 µL/min/mg | inhibition [15]: Dose-Dependent Effect | microsomal CLint [5]: 9.38 µL/min/mg | Papp B→A [6]: 8.71 ×10⁻⁶ cm/s | logD [7]: 0.32 | IC50 [9]: 3.13 µM | IC50 [10]: 19 µM | Papp A→B [12]: 0.39 ×10⁻⁶ cm/s | GI50 (SK-OV-3): 8620 nM

Cn1cc(-c2n[nH]c3cc(Cl)c(Br)cc23)cn1
IC50 [10]: 0.85 µM

Clc1ncnc2ccsc12
IC50 [10]: 302 µM

COc1ccc(-n2cc(-c3n[nH]c4cc(Cl)c(N[C@H]5CNCC56CC6)cc34)cn2)cc1
solubility thermodynamic [1]: 5.55 µg/mL (≈ 12.8 µM) | efflux ratio [2]: 1.3 | microsomal CLint [3]: 83 µL/min/mg | Tmax [4]: 15 min | microsomal CLint [5]: 5.14 µL/min/mg | Papp B→A [6]: 5.24 ×10⁻⁶ cm/s | logD [7]: > 5 | Cmax [8]: 53 ng/mL | IC50 [9]: 0.883 µM | IC50 [10]: 1 µM | AUC(0-inf) [11]: 129 ng·h/mL | Papp A→B [12]: 4.05 ×10⁻⁶ cm/s | half-life [13]: 130 min | GI50 (SK-OV-3): 28.5 nM

CN1CCC(CNc2ccc3[nH]nc(-c4cnn(C)c4)c3c2)CC1
IC50 [10]: 1850 µM

Fc1ccc(-n2cc(-c3n[nH]c4cc(Cl)c(N[C@@H]5CCNC5)cc34)cn2)cc1
IC50 [9]: 0.684 µM | IC50 [10]: 2.3 µM

c1cnc2[nH]ccc2c1
IC50 [10]: 391 µM

Cn1cc(-c2n[nH]c3ccc(NC4CCNC4)cc23)cn1 (centres undefined)
IC50 [10]: 132 µM

Nc1cccc2[nH]nc(Br)c12
IC50 [10]: 486 µM

Cn1cc(-c2n[nH]c3cc(N)ccc23)cn1
IC50 [10]: 28.8 µM

Cn1cc(-c2n[nH]c3ccc(-c4ccccc4)cc23)cn1
IC50 [10]: 0.62 µM

CNC1CCN(c2ccc3[nH]nc(-c4cnn(C)c4)c3c2)C1 (centres undefined)
IC50 [10]: 432 µM

Cn1cc(-c2n[nH]c3cc(Nc4ccccc4)ccc23)cn1
IC50 [10]: 219 µM

Nc1ccc2[nH]nc(Br)c2c1
IC50 [10]: > 770 µM

Cc1cnc2[nH]ccc2c1Cl
IC50 [10]: 20.2 µM

Cn1cc(-c2n[nH]c3ccc(N[C@@H]4CCNC4)cc23)cn1
IC50 [9]: 20.7 µM | IC50 [10]: 37 µM

FC(F)(F)c1cccc2[nH]ncc12
IC50 [10]: 184 µM

O=C(O)c1ccc2cn[nH]c2c1
IC50 [10]: > 770 µM

N#Cc1cccc(-n2cc(-c3n[nH]c4cc(Cl)c(N[C@@H]5CCNC5)cc34)cn2)c1
IC50 [9]: 2.02 µM | IC50 [10]: 2.3 µM | GI50 (SK-OV-3): 496 nM

FCCn1cc(-c2n[nH]c3cc(Cl)c(N[C@@H]4CCNC4)cc23)cn1
IC50 [9]: 3.46 µM | IC50 [10]: 5 µM

O=C1CC(c2ccccc2)=NN1
IC50 [10]: 13 µM

Cn1cc(-c2n[nH]c3ccc(Br)cc23)cn1
IC50 [10]: 1.54 µM

CN1CCC(Nc2ccc3[nH]nc(-c4cnn(C)c4)c3c2)CC1
IC50 [10]: 207 µM

COc1ccc(-n2cc(-c3n[nH]c4cc(Cl)c(N[C@@H]5CCN(C6COC6)C5)cc34)cn2)cc1
inhibition [14]: Active | solubility thermodynamic [1]: 1.84 µg/mL (≈ 3.96 µM) | efflux ratio [2]: 0.55 | microsomal CLint [3]: 129 µL/min/mg | Tmax [4]: 15 min | inhibition [16]: Active | inhibition [15]: Dose-Dependent Effect | microsomal CLint [5]: 44.8 µL/min/mg | inhibition [17]: Active | Papp B→A [6]: 8.41 ×10⁻⁶ cm/s | logD [7]: 4.75 | Cmax [8]: 460 ng/mL | IC50 [9]: 11.4 µM | inhibition [18]: Active | IC50 [10]: 41.5 µM | AUC(0-inf) [11]: 1620 ng·h/mL | Papp A→B [12]: 15.2 ×10⁻⁶ cm/s | half-life [13]: 148 min | GI50 (SK-OV-3): 1020 nM

Cn1cc(-c2n[nH]c3cc(Br)ccc23)cn1
IC50 [10]: 0.95 µM

Cn1cc(-c2n[nH]c3ccc(Nc4ccccc4)cc23)cn1
IC50 [10]: 0.58 µM
